Measurements taken from ChEMBL document CHEMBL5543095 (Eur J Med Chem, 2024).

Experiments:
A549 = test: Antiproliferative activity against human A549 cells assessed as inhibition of cell growth inhibition incubated for 48 hrs by CCK-8 assay; type: functional, cell-based; settings: A549, 48 h
[1] = Cytotoxicity against HUVEC cells assessed as inhibition of cell growth inhibition incubated for 48 hrs by CCK-8 assay; type: toxicity, cell-based; settings: human
U-87 MG [2] = test: Antiproliferative activity against human U87 cells assessed as inhibition of cell growth inhibition incubated for 48 hrs by CCK-8 assay; type: functional, cell-based, U-87MG ATCC
Huh-7 = test: Antiproliferative activity against human Huh-7 cells assessed as inhibition of cell growth inhibition incubated for 48 hrs by CCK-8 assay; type: functional, cell-based; settings: Huh-7, 48 h
U-87 MG [3] = test: Induction of cell cycle arrest in human U87 cells assessed as accumulation of cells at G1 phase at 25 nM measured after 48 hrs by PI staining based flow cytometry analysis (reference value: 72.6%); type: functional, U-87MG ATCC
U-87 MG [4] = test: Induction of cell cycle arrest in human U87 cells assessed as accumulation of cells at […] at 25 nM measured after 48 hrs by PI staining based flow cytometry analysis (reference value: 8.55%); type: functional, U-87MG ATCC
P-gp = test: Substrate activity at P-gp in MDCK-MDR1 cells assessed as efflux ratio of apparent permeability across basolateral to apical side over apical to basolateral side at 10 uM incubated for 90 mins by LC-MS/MS analysis; type: ADME, cell-based, Canis lupus familiaris; settings: dog
[5] = Apparent permeability across basolateral to apical side in MDCK-MDR1 cells at 10 uM incubated for 90 mins by LC-MS/MS analysis; type: ADME, cell-based, Canis lupus familiaris; settings: dog
[6] = Apparent permeability across apical to basolateral side in MDCK-MDR1 cells at 10 uM incubated for 90 mins by LC-MS/MS analysis; type: ADME, cell-based, Canis lupus familiaris; settings: dog
[7] = Toxicity in C57BL/6 mouse implanted with mouse GL261-Luc cells assessed as reduction in body weight at 5 to 10 mg/kg, iv administered every other day on day 0,2,4,6,8,10 and measured after 12 days; type: organism-based; settings: in vivo, 288 h, dose 5-10 mg/kg, time 12 day
[8] = Toxicity in C57BL/6 mouse implanted with mouse GL261-Luc cells assessed as reduction in body weight at 5 mg/kg, iv administered every other day on day 0,2,4,6,8,10 and measured after 12 days; type: organism-based; settings: in vivo, 288 h, time 12 day

SMILES | IC50 (A549) | IC50 at 48 h [1] | IC50 (U-87 MG [2]) | IC50 (Huh-7) | Activity (U-87 MG [3]) | Activity (U-87 MG [4]) | efflux ratio at 1.5 h, 10 µM (P-gp) | Papp B→A at 1.5 h, 10 µM [5] | Papp A→B at 1.5 h, 10 µM [6] | Activity [7] | Activity [8]
N#CC1=C(N)Oc2c(cc(Cl)c3cccnc23)C1c1ccccc1 (centres undefined) | 9.66 µM | > 10 µM | 4.38 µM | 0.3 µM |  |  |  |  |  |  | 
Cc1ccc2ccc3c(c2n1)OC(N)=C(C#N)C3c1cccc(Cl)c1Cl (centres undefined) | > 10 µM | > 10 µM | 3.69 µM | 2.22 µM |  |  |  |  |  |  | 
COc1cc(OC)c(C2C(C#N)=C(N)Oc3c2ccc2ccc(C)nc32)cc1OC (centres undefined) | 8.13 µM | 7.87 µM | 4.68 µM | 4.64 µM |  |  |  |  |  |  | 
N#CC1=C(N)Oc2c(ccc3cccnc23)C1c1ccc(F)cc1 (centres undefined) | > 10 µM | > 10 µM | > 10 µM | > 10 µM |  |  |  |  |  |  | 
COc1cc2c(c(OC)c1OC)-c1ccc(OC)c(=O)cc1[C@@H](NC(C)=O)CC2 [COLCHICINE] |  |  |  |  | 19.7% | 46.5% |  |  |  |  | 
CCc1ccc(C2C(C#N)=C(N)Oc3c2ccc2ccc(C)nc32)cc1 (centres undefined) | 2.44 µM | > 10 µM | 5.93 µM | 3.46 µM |  |  |  |  |  |  | 
C[C@H]1O[C@@H](O[C@H]2[C@@H](O)C[C@H](O[C@H]3[C@@H](O)C[C@H](O[C@H]4CC[C@@]5(C)[C@H](CC[C@@H]6[C@@H]5C[C@@H](O)[C@]5(C)[C@@H](C7=CC(=O)OC7)CC[C@]65O)C4)O[C@@H]3C)O[C@@H]2C)C[C@H](O)[C@@H]1O [DIGOXIN] |  |  |  |  |  |  | 36.9 | 18 ×10⁻⁶ cm/s | 0.49 ×10⁻⁶ cm/s |  | 
COc1ccc(C2C(C#N)=C(N)Oc3c2cc(Cl)c2cccnc32)c(OC)c1OC (centres undefined) | > 10 µM | > 10 µM | > 10 µM | > 10 µM |  |  |  |  |  |  | 
COc1cc(C2C(C#N)=C(N)Oc3c2ccc2ccc(C)nc32)cc(OC)c1Br (centres undefined) | 1.59 µM | > 10 µM | 2.87 µM | 2.6 µM |  |  |  |  |  |  | 
N#CC1=C(N)Oc2c(ccc3cccnc23)C1c1ccc(Cl)cc1 (centres undefined) | > 10 µM | > 10 µM | > 10 µM | > 10 µM |  |  |  |  |  |  | 
COc1ccc(C2C(C#N)=C(N)Oc3c2ccc2cccnc32)cc1OC (centres undefined) | > 10 µM | > 10 µM | > 10 µM | 2.95 µM |  |  |  |  |  |  | 
N#CC1=C(N)Oc2c(ccc3cccnc23)C1c1ccc(Br)cc1 (centres undefined) | > 10 µM | > 10 µM | > 10 µM | > 10 µM |  |  |  |  |  |  | 
CC(C)c1ccc(C2C(C#N)=C(N)Oc3c2ccc2cccnc32)cc1 (centres undefined) | > 10 µM | > 10 µM | > 10 µM | > 10 µM |  |  |  |  |  |  | 
COc1ccc(C2C(C#N)=C(N)Oc3c2ccc2ccc(C)nc32)c(OC)c1OC (centres undefined) | 6.16 µM | > 10 µM | 5.27 µM | 4.89 µM |  |  |  |  |  |  | 
Cn1nnc2c(C(N)=O)ncn2c1=O [TEMOZOLOMIDE] |  |  |  |  |  |  | 1.04 | 31.8 ×10⁻⁶ cm/s | 30.6 ×10⁻⁶ cm/s | Non-Toxic | Non-Toxic
COc1ccc(C2C(C#N)=C(N)Oc3c2cc(Cl)c2cccnc32)cc1OC (centres undefined) | > 10 µM | > 10 µM | > 10 µM | > 10 µM |  |  |  |  |  |  | 
Cc1ccc2ccc3c(c2n1)OC(N)=C(C#N)C3c1ccc(Br)cc1 (centres undefined) | 8.12 µM | > 10 µM | > 10 µM | > 10 µM |  |  |  |  |  |  | 

SMILES | IC50 (A549) | IC50 at 48 h [1] | IC50 (U-87 MG [2]) | IC50 (Huh-7) | Activity (U-87 MG [3]) | Activity (U-87 MG [4]) | efflux ratio at 1.5 h, 10 µM (P-gp) | Papp B→A at 1.5 h, 10 µM [5] | Papp A→B at 1.5 h, 10 µM [6] | Activity [7] | Activity [8]
N#CC1=C(N)Oc2c(cc(Cl)c3cccnc23)C1c1ccc(F)cc1 (centres undefined) | > 10 µM | > 10 µM | > 10 µM | > 10 µM |  |  |  |  |  |  | 
CC(C)c1ccc(C2C(C#N)=C(N)Oc3c2cc(Cl)c2cccnc32)cc1 (centres undefined) | > 10 µM | > 10 µM | > 10 µM | > 10 µM |  |  |  |  |  |  | 
Cc1ccc2ccc3c(c2n1)OC(N)=C(C#N)C3c1ccc(C(C)C)cc1 (centres undefined) | 4.57 µM | > 10 µM | 4.28 µM | 6.34 µM |  |  |  |  |  |  | 
N#CC1=C(N)Oc2c(cc(Cl)c3cccnc23)C1c1ccc(Br)cc1 (centres undefined) | > 10 µM | > 10 µM | > 10 µM | > 10 µM |  |  |  |  |  |  | 
COc1ccc(C2C(C#N)=C(N)Oc3c2ccc2ccc(C)nc32)cc1OC (centres undefined) | > 10 µM | > 10 µM | 4.85 µM | > 10 µM |  |  |  |  |  |  | 
Cc1ccc2ccc3c(c2n1)OC(N)=C(C#N)C3c1ccc(F)cc1 (centres undefined) | 3.25 µM | 7.58 µM | 7.87 µM | 2 µM |  |  |  |  |  |  | 
N#CC1=C(N)Oc2c(cc(Cl)c3cccnc23)C1c1ccc(Cl)c(Cl)c1 (centres undefined) | 6.42 µM | > 10 µM | 4.13 µM | 2.14 µM |  |  |  |  |  |  | 
Cc1ccc(C2C(C#N)=C(N)Oc3c2ccc2ccc(C)nc32)cc1 (centres undefined) | 3.05 µM | 9.02 µM | 6.12 µM | 5.51 µM |  |  |  |  |  |  | 
COc1ccc(C2C(C#N)=C(N)Oc3c2ccc2cccnc32)c(OC)c1OC (centres undefined) | > 10 µM | > 10 µM | > 10 µM | > 10 µM |  |  |  |  |  |  | 
CC[C@@]1(O)C(=O)OCc2c1cc1n(c2=O)Cc2cc3cc(O)ccc3nc2-1 [HYDROXYCAMPTOTHECIN] | 0.12 µM | 0.92 µM | 2.92 µM | 1.35 µM |  |  |  |  |  |  | 
Cc1ccc2ccc3c(c2n1)OC(N)=C(C#N)C3c1ccc(Cl)c(Cl)c1 (centres undefined) | 1.24 µM | 8.17 µM | 1.98 µM | 1.25 µM |  |  |  |  |  |  | 
N#CC1=C(N)Oc2c(cc(Cl)c3cccnc23)C1c1ccc(Cl)cc1 (centres undefined) | > 10 µM | 7.65 µM | > 10 µM | 4.57 µM |  |  |  |  |  |  | 
Cc1ccc2ccc3c(c2n1)OC(N)=C(C#N)C3c1ccc(Cl)cc1 (centres undefined) | > 10 µM | > 10 µM | 8.08 µM | 5.31 µM |  |  |  |  |  |  | 
N#CC1=C(N)Oc2c(ccc3cccnc23)C1c1ccccc1 (centres undefined) | > 10 µM | > 10 µM | > 10 µM | 2.47 µM |  |  |  |  |  |  | 
N#CC1=C(N)Oc2c(ccc3cccnc23)C1c1ccc(Cl)c(Cl)c1 (centres undefined) | 4.95 µM | 8.23 µM | 6.18 µM | 2.35 µM |  |  |  |  |  |  | 
Cc1ccc(C2C(C#N)=C(N)Oc3c2ccc2cccnc32)cc1 (centres undefined) | > 10 µM | > 10 µM | > 10 µM | > 10 µM |  |  |  |  |  |  | 
Cc1ccc(C2C(C#N)=C(N)Oc3c2cc(Cl)c2cccnc32)cc1 (centres undefined) | > 10 µM | > 10 µM | > 10 µM | > 10 µM |  |  |  |  |  |  | 
